Reference: PMC12216184 (Nature Communications, 2025)
Non-standard residues stand in square brackets, D forms with d. No end group written: not given here.

Assays:
[1] = system: endogenous p53 versus p53^ΔTAD2 in RPE-1 cells; assay: Pull-down of endogenous p53 versus p53^ΔTAD2 from RPE-1 cells; assay type: binding, human; settings: biotinylated bait (26 µM FOXO-FH or 125 µM biotinylated peptide CLO4201) on streptavidin agarose, 1 mg/mL RPE-1 lysate, 4 °C, Western blot, triplicates
Description: Then, cells were selected by blasticidin for 10 days. Cells, which were expressing 3HA-GFP-miniturbo, p53-3HA-GFP-miniturbo-p53 and p53-Δtad2-3HA-GFP-miniturbo were sorted by FACS using GFP (Supplementary Fig. 17).
p53 mutant human TERT-immortalized retinal pigment epithelial 1 (RPE1) cells (RPE1 TP53^−/−; denoted RPE-1 p53KO) cells were kindly provided by Joanna Loizou (CeMM Research Center for Molecular Medicine of the Austrian Academy of Sciences, Vienna, Austria)[48]. […] For the preparation of cell lysates for pull down experiments, cells were grown to confluence and incubated with 10 µM Etoposide (Sigma) for 24 h. Cells were harvested in ice cold PBS pH 7.4 and lysed in lysis buffer (10 mM Tris pH 7.4, 1% IGEPAL®CA-630, 0.1% SDS, 140 mM NaCl, 2 mM MgCl2) supplemented with protease inhibitor cocktail, Benzonase (Merck Millipore) and RNase (molecular biology, Thermo Fisher). Samples were incubated on ice for 20 min, lysed by sonication and centrifuged for 15 min at 24,104 g and 4 °C. Pellets were discarded. Protein amount of lysates was determined by BCA protein assay. Lysates were then diluted to a protein concentration of 1 mg/mL in ice-cold dilution buffer (10 mM Tris pH 7.4, 1% IGEPAL®CA-630, 0.1% SDS, 140 mM NaCl, 2 mM EDTA) supplemented with protease inhibitor cocktail. […]

p53^1–94 [2] = assay: NMR secondary chemical shifts and relaxation (15N{1H} NOE, R1, R2) of p53^1–94; assay type: binding, human; settings: 300 µM p53^1–94 with 400 µM ligand, pH 7.5
Experimental: Data analysis von R1 and R1ρ measurements were performed using CcpNMR 2.5[49]. As fitting function, the following equation was used2 Mzt=M0^−Rit+C where Mz(t) is the longitudinal relaxation at the recovery delay time t, M0 is the equilibrium magnetization and Ri is either the longitudinal relaxation rate R1 or R1ρ. The transverse relaxation in the rotating frame R1ρ was then converted to R2 as described previously[50],[51] using the formula3 R1ρ=R1cos^2θ+R2sin^2θ in which θ = arctan(1/Ω) is the tilt angle between the static magnetic field and the effective field in the rotating frame.

p53^1–94 [3] = assay: 1H,15N HSQC NMR titration of 15N-labeled p53^1–94 (CSP); assay type: binding, human; settings: 15N-labeled p53^1–94, NMR titration
Experimental: (§1) All NMR spectra were recorded at 298 K either on a 700 MHz Bruker Avance III NMR spectrometer equipped with a TCI cryoprobe or on a 600 MHz Bruker Avance Neo NMR spectrometer equipped with a TXI 600S3 probehead at 298 K. All samples were in 50 mM NaH2PO4/Na2HPO4, pH 7.5 and 10 % D2O was added for the lock. Chemical shifts of the recombinant FOXO4-LRI were assigned using the following three-dimensional spectra: HNCACB, CBCA(CO)NH, (HN)N(CA)NNH, HN(NCA)NNH and (H)CC(CO)NH.
(§2) The CSPs were calculated according to the following equation:1 CSP=δH^2+ΔδN^2/7 where ΔδH and ΔδN indicate the chemical shift changes of the amide proton and nitrogen, respectively, using CcpNMR 2.5[49].

[4] = target: p53^TAD2 (residues 37-57), synthetic peptide (human) (UniProt P04637); assay: ITC
p53^TAD2 (residues 37-57), synthetic peptide (human), sequence (P04637 37-57): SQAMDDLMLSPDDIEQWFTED

[5] = target: N-terminal p53 region from amino acids 1 to 94 (p53^1-94) (human) (UniProt P04637); assay: ITC
N-terminal p53 region from amino acids 1 to 94 (p53^1-94) (human), sequence (P04637 1-94): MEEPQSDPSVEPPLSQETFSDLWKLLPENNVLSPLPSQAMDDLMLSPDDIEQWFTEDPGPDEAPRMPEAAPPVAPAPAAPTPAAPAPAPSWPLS

[6] = target: p53^TAD2 phosphorylated at Ser46 and Thr55 (human) (UniProt P04637); assay: ITC
[7] = target: p53^TAD2 phosphorylated at Thr55 (human) (UniProt P04637); assay: ITC
[8] = target: p53^TAD2 phosphorylated at Ser46 (human) (UniProt P04637); assay: ITC
FOXO4^FH = assay: 1H,15N HSQC NMR titration of 15N-labeled FOXO4^FH (CSP); assay type: binding, human; settings: one equivalent of phosphopeptide versus p53^TAD2, 15N-labeled FOXO4^FH
Experimental: as §1, §2

p53^1-94 = target: T1, p53^1-94 (Homo sapiens, UniProt P04637); assay: ITC, p53^1-94; assay type: binding
T1 construct: His6-protein A (TEV cleavage site) (cleaved yes); made in house; host or cells: Escherichia coli BL21-DE3 Star
T1 sequence (P04637 1-94): as above

p53^TAD2pS46T55 = target: T2, p53^TAD2pS46T55 (Homo sapiens, UniProt P04637); assay: ITC, p53^TAD2pS46T55; assay type: binding
T2 construct: purchased Peptide Specialty Laboratories GmbH

p53^TAD2pT55 = target: T3, p53^TAD2pT55 (Homo sapiens, UniProt P04637); assay: ITC, p53^TAD2pT55; assay type: binding
T3 construct: purchased Peptide Specialty Laboratories GmbH

p53^TAD2pS46 = target: T4, p53^TAD2pS46 (Homo sapiens, UniProt P04637); assay: ITC, p53^TAD2pS46; assay type: binding
T4 construct: purchased Peptide Specialty Laboratories GmbH

p53^TAD2 = target: T5, p53^TAD2 (Homo sapiens, UniProt P04637); assay: ITC, p53^TAD2; assay type: binding
T5 construct: purchased Peptide Specialty Laboratories GmbH

FOXO4^CR3 = assay: 1H,15N HSQC NMR titration of 15N-labeled FOXO4^CR3 (CSP); assay type: binding, human; settings: 15N-labeled FOXO4^CR3, NMR titration with p53^DBD
Experimental: as §1, §2

In the case of “FOXO4^FH: FOXO4 forkhead domain fragment, amino acids 86–208”, the “pull-down of endogenous p53 versus p53^ΔTAD2” value [1] is reported as “higher amounts of endogenous p53 versus p53^ΔTAD2”, the “15N{1H} NOE change” value (p53^1–94 [2]) is reported as “increased substantially in the presence of FOXO4^FH” and the “R1 relaxation rate change” value (p53^1–94 [2]) is reported as “highly similar”. For the same substance, the “most affected residues of p53 (CSP)” value (p53^1–94 [3]) was “region from amino acids 45 to 57”.
For “FOXO4-DRI (D-retro-inverso cell-penetrating peptide derived from the FOXO4 FH domain, fused to HIV-TAT)”, the dH [4] was 0.2 kcal/mol, the stoichiometry N [4] was 0.9 and the dH [5] was 5.9 kcal/mol. The stoichiometry N [5] was 0.9, the dH [6] was -4.5 kcal/mol and the stoichiometry N [6] was 1.11. For the same substance, the dH [7] was -4.7 kcal/mol, the stoichiometry N [7] was 0.74 and the dH [8] was -1.8 kcal/mol. For the same substance, the stoichiometry N [8] was 0.71.
With “p53^TAD2pT55: p53^TAD2 peptide phosphorylated at Thr55” the “effect of phosphorylation on CSPs of FOXO4^FH” value (FOXO4^FH) was “stronger CSPs”.
“p53^TAD2pS46: p53^TAD2 peptide phosphorylated at Ser46” was tested, and the “effect of phosphorylation on CSPs of FOXO4^FH” value (FOXO4^FH) was “stronger CSPs”.
“[dL][dT][dL][dR][dK][dE][dP][dA][dS][dE][dI][dA][dQ][dS][dI][dL][dE][dA][dY][dS][dQ][dN]G[dW][dA][dN][dR][dR][dS]GG[dK][dR][dP][dP][dP][dR][dR][dR][dQ][dR][dR][dK][dK][dR]G [FOXO4-DRI]” was tested, and the Kd (p53^1-94) was 0.4 ± 0.3 µM, the Kd (p53^TAD2pS46T55) was 4.9 ± 0.3 µM and the Kd (p53^TAD2pT55) was 5.8 ± 1.2 µM. The Kd (p53^TAD2pS46) was 10.5 ± 1.5 µM and the Kd (p53^TAD2) was 18.5 ± 3.6 µM.
“p53^DBD: human p53 DNA-binding domain fragment, amino acids 94–312” was tested, and the “most affected residues of FOXO4^CR3 (CSP)” value (FOXO4^CR3) was “between FOXO4 amino acids 473 and 491”.
